In PMC7614683, “A small molecule PI3Kα activator for cardioprotection and neuroregeneration” (Nature, 2023):
Like-named read-outs stand apart in the source and are kept apart here.

Columns and labels:
[1] = system: p110α-mutants D603K, D603A, 603DCN_AAA605, D603A/F1016S, L1006R, F1016S, L1006R/F1016S; assay: ADP-Glo catalytic activity, mutants in the 1938-binding pocket; assay type: biochemical, human; details: all mutants
Experimental: Expression and purification of mutants resistant to 1938 were performed as follows. Sf9 insect cells (1.5 L) were cultured in Insect-XPRESS with L-Glutamine medium (Lonza BE12-730Q) at 27°C and co-infected with baculovirus encoding the regulatory p85α-subunit [LMB-MRC plasmid OP809] and the catalytic subunit p110α-D603K [LMB-MRC plasmid OP895], D603A [OP900], 603DCN_AAA605 [OP894], D603A/F1016S [OP901], L1006R [OP897], F1016S [OP898], L1006R/F1016S [OP899] at a density of 1.6 × 10^6 cells/ml. The culture was incubated for 47 h after infection, cells were collected, flash-frozen in liquid N2 and stored at -80°C. For purification, cell pellets were resuspended in 50 ml of lysis buffer (20 mM Tris, 150 mM NaCl, 5% glycerol, 1 mM TCEP, pH 8.0) containing EDTA-free Protease inhibitor tablets (1 tablet per 50 ml of solution), 0.5 mM PEFA and 5 μl of Piece® Universal Nuclease For Cell Lysis. The suspension was sonicated for 3 min on ice, with 10 sec on and 10 sec off. […]
For characterisation of the effects of 1938 on in vitro PI3K enzymology, all reactions were performed at room temperature with 384 white-polystyrene plates (Corning #3574). […] Data was expressed as velocity (nmol of ADP generated/nmol of enzyme/sec). […] Luminescence was read using a PHERAstar® plate reader with software version 5.41, and analyses were performed using GraphPad Prism 8/9.

[2] = target: BRK (Homo sapiens, UniProt Q13882); assay: SelectScreen kinase profiling, BRK; assay type: biochemical
BRK, sequence (Q13882 whole entry): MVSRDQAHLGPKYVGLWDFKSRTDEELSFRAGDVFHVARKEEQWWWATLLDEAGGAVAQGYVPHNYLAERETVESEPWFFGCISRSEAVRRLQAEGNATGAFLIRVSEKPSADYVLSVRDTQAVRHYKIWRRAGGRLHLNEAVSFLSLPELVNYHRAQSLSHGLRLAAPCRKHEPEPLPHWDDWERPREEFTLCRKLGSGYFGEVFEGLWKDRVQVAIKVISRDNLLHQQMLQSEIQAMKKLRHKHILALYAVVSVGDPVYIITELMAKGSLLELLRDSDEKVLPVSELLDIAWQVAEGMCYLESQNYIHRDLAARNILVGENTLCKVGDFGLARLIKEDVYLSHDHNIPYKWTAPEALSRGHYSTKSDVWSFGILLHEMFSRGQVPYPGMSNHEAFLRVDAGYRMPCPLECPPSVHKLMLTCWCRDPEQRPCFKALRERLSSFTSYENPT
Experimental: (§1) 133 protein kinases and 7 lipid kinases were counterscreened, with 1938 used at 1 μM, using the Adapta, Lantha and Z-LYTE assays (SelectScreen Kinase Profiling Service; Thermofisher – experimental details of these assays can be found here: https://www.thermofisher.com/uk/en/home/industrial/pharma-biopharma/drug-discovery-development/target-and-lead-identification-and-validation/kinasebiology/kinase-activity-assays.html. The tree represention in KinMap[59] generated courtesy of Cell Signaling Technology, Inc. (www.cellsignal.com). mTORC1 (mTOR/RAPTOR/LST8) protein complex and ATM kinase and substrates were produced as previously described[57],[60]. Screening of 1938 was conducted using SuperSep Phos-Tag 50 μmol/l 100 x 100 x 6.6 mm 17-well (192-18001/199-18011) gels. For ATM assays, 100 nM ATM was incubated for 30 min at 30°C with 5 μM GST-p53 and 1 mM ATP, in the absence or presence of 200 μM 1938 in ATM Kinase Buffer (50 mM HEPES pH 7.5, 100 mM NaCl, 10% glycerol, 2 mM […], 5 mM MgCl2). As a positive control for ATM activation, the same reaction was carried out with 100 nM ATM/5 μM GST-p53/1 mM ATP in the presence of 100 nM Mre11-Rad50-Nbs1 (MRN) complex, a known activator of ATM[61]. For mTORC1 assays, 50 nM mTORC1 complex (mTOR/LST8/RAPTOR) was incubated for 3 h at 30°C with 15 μM 4E-BP1, 10 mM MgCl2 and 250 μM ATP, in the absence or presence of 200 μM 1938. As a ‘positive’ control, a higher concentration (150 nM) of mTORC1 complex (mTOR/LST8/RAPTOR) was incubated for 3 h at 30°C with 15 μM 4E-BP1, 10 mM MgCl2 and 250 μM ATP. Kinase reactions were quenched by addition of SDS-PAGE Loading Buffer (as per manufacturer’s instructions) and freezing at -20°C before being run on the Phos-tag gels at 150 V for 90 min. Gels were then stained using InstantBlue™ Coomassie, and quantified using BioRad Image Lab Software. Kinase assays were carried out in triplicate.

[3] = target: protein kinases of the Z-LYTE panel (Homo sapiens, UniProt P51451); assay: SelectScreen Z-LYTE kinase activity assay (SI Table 6); assay type: biochemical
protein kinases of the Z-LYTE panel, sequence (P51451 whole entry): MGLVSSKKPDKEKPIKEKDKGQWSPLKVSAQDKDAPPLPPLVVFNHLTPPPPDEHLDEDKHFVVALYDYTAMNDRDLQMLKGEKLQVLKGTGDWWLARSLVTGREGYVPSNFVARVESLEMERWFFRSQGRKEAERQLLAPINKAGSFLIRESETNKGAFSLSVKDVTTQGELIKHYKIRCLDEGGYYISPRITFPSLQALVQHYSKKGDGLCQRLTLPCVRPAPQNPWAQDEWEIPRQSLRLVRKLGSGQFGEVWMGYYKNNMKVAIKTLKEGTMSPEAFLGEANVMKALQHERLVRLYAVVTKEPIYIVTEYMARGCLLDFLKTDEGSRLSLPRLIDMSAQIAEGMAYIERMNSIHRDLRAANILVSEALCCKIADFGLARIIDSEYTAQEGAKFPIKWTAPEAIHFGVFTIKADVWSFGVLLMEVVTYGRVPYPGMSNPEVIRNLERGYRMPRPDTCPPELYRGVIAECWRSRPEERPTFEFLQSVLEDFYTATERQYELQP
Experimental: as §1

CCN1CCN(c2ccc(Nc3cc(Nc4cccc5c4N(C(C)=O)CC5)ccn3)cc2)CC1 [Compound 1938]
activation of 1938-binding pocket p110α-mutants [1]: resistant to activation by 1938
inhibition at 1 µM ([2]; read-out: % Inhibition Point 1): 55%
inhibition at 1 µM ([2]; read-out: % Inhibition Point 2): 56%
inhibition at 1 µM ([2]; read-out: % Inhibition mean): 56%
inhibition at 1 µM ([3]; read-out: % Inhibition Point 1): 16%
inhibition at 1 µM ([3]; read-out: % Inhibition Point 2): 6.35%
inhibition at 1 µM ([3]; read-out: % Inhibition mean): 11%
